According to patent US20100291592A1, “NOVEL MARKER FOR SENSITIVITY AGAINST SULFONAMIDE COMPOUND” (priority 2006, published 2010):

System: cancer cell line resistant to E7070
Assay: not given
Details: WO2006/030941 and WO2006/030947; cited from earlier work

Compound	Cross-resistance of E7070-resistant cancer cell line (antiproliferative activity)
O=C(NS(=O)(=O)c1ccc(Br)s1)c1ccc(Cl)cc1Cl [LY573636, N-(2,4-dichlorobenzoyl)-5-bromothiophene-2-sulfonamide]	cross-resistance
Nc1ccc(S(=O)(=O)Nc2cnc3c(Cl)cccc3n2)cc1 [CQS, 2-sulfanylamide-5-chloroquinoxaline]	cross-resistance
O=C(Nc1ccc(Cl)c(Cl)c1)NS(=O)(=O)c1ccc2c(c1)CCO2 [LY295501, N-[[(3,4-dichlorophenyl)amino]carbonyl]-2,3-dihydrobenzofuran-5-sulfonamide]	cross-resistance
O=C(Nc1ccc(Cl)cc1)NS(=O)(=O)c1ccc2c(c1)CCC2 [LY186641, N-[[(4-chlorophenyl)amino]carbonyl]-2,3-dihydro-1H-indene-5-sulfonamide]	cross-resistance
O=C(NS(=O)(=O)c1ccc(Cl)cc1)c1ccc(Cl)cc1Cl [LY-ASAP, N-(2,4-dichlorobenzoyl)-4-chlorophenylsulfonamide]	cross-resistance

System: EGFR1
Assay: EGFR1 expression level in cultured HCT116-C9 (mass spectrometry, 12C/13C-leucine labelling)
Assay type: cell-based, human
Details: HCT116-C9, 1 μM E7070, 24 hours, LC-MS/MS, treated/untreated
Method: First, RPMI-1640 (containing 10% FBS) supplemented with ^13C-labeled L-leucine (^13C-leucine, Cambridge Isotope Labs) and RPMI-1640 (containing 10% FBS) supplemented with non-isotope-labeled L-leucine (^12C-leucine) were prepared. Then, human colon cancer cell line HCT116-C9 was cultured in each medium through at least the fifth passage. HCT116-C9 was a subline separated from human colon cancer cell line HCT116 (obtained from ATCC) and known as a cell line highly sensitive to […] (Molecular Cancer Therapeutics, 2002, 1, 275-286). Thereafter, each cell was seeded in a 15-cm-diameter culture dish at a concentration of 1.0×10^7 cells/50 ml. Then, 24 hours later, 1 μM of […] was added to HCT116-C9 cultured in the ^12C-leucine-containing medium and nothing was added to HCTZ 16-C9 cultured in the ^13C-leucine-containing medium. These cells were continued culturing. Twenty-four hours later, the cells were washed twice with a phosphate buffer saline according to a routine procedure, added with 3 ml of M-PER (PIERCE) to solubilize the cells and then equal amounts of them were mixed. The cell lysates were dialyzed by a routine procedure to sublimate the solutions, and digested with trypsin, thereby obtaining peptide samples. The resulting peptide samples were analyzed with LC-MS/MS. […]

Compound	Peak intensity ratio (12C/13C) of EGFR1-derived peptide fragment
NS(=O)(=O)c1ccc(S(=O)(=O)Nc2cccc3c(Cl)c[nH]c23)cc1 [E7070, N-(3-chloro-1H-indole-7-yl)-1,4-benzenedisulfonamide]	0.6-0.8
